The source of these data is PMC12857369 (Kidney International Reports, 2025).

For the assay, the target named is T1, chymase (Homo sapiens, UniProt P23946).
T1 construct: gene CMA1; recombinant human chymase
T1 sequence (P23946 22-247): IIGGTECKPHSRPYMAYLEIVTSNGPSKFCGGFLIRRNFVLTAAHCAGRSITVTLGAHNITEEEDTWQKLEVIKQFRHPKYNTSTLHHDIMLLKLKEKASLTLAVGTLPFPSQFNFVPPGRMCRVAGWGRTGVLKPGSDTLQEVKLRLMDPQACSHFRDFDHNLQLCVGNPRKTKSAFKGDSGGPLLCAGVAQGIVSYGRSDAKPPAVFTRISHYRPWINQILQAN
The experiment in a line: Ang I to Ang II conversion by recombinant human chymase, LC-MS/MS dose response. The assay is classed as biochemical.

The IC50 is the midpoint of a concentration-inhibition curve.

As to `CC(C)C[C@H](NC(=O)[C@@H](NC(=O)N[C@@H](Cc1ccccc1)C(=O)O)[C@@H]1CCN=C(N)N1)C(=O)N[C@H](C=O)Cc1ccccc1` [chymostatin], the IC50 was 0.06 µM.
